Patent publication US11205502B2, “Processing method and processing apparatus for efficacy of combined drug” (Institute of radiation medicine, academy of military …, priority 2015, dated 2021)

Test system: human lung cancer cell H460 lines
Test: MTT method, inhibition of growth of H460 by etoposide, vincristine, 5-fluorouracil, adriamycin and three-drug combinations; expected additive effect by equivalent dose conversion
Format: cell-based
Details: for Efficacy of C / Efficacy of A / Efficacy of B: from fitted single-use equation
Text: Title: there are many application schemes for a chemotherapeutic drug in lung cancer treatment. The chemotherapeutic drug in these schemes mainly includes the followings that belong to a topoisomerase inhibitor, a microtubule inhibitor, a metabolic inhibitor and an alkylating agent from types. One representative drug is successively selected from the four types of the drugs and respectively is etoposide (A), vincristine (B), 5-fluorouracil (C) and adriamycin (D). For any three combined application schemes, the inhibition effect to growth of human lung cancer cell H460 lines is detected with an MTT method. The three schemes successively are combinations of four combined drugs of A+B+C, A+B+D, A+C+D and B+C+D and the synergistic, additive and antagonistic effects are evaluated quantitatively. A:B:C=12.5:2:45 (μg/ml+μg/ml+μg/ml) A+B+C combination: A:B:D=12.5:2:4 (μg/ml+μg/ml+μg/ml) A+B+D combination: A:C:D=12.5:45:4 (μg/ml+μg/ml+μg/ml) A+C+D combination: B:C:D=2:45:4 (μg/ml+μg/ml+μg/ml) B+C+D combination:
For the etoposide (A), vincristine (B) and 5-fluorouracil (C), dose-effect relationship data of single drugs and dose-effect relationship data in the combined use A:B:C=12.5:2:45 (μg/ml+μg/ml+μg/ml), see a table 9 and a table 10.
Step 2, the dose is converted sequentially, and each dose-effect relationship data formed into an expected additive efficacy curve band under a combined condition is calculated.
The equivalent dose conversion is performed on combinations of two drugs of A+B, A+C and B+C sequentially first and then the equivalent dose conversion is performed on (A+B)+C, (A+C)+B and (B+C)+A. An expression for an expected additive effect of the three drugs in the combined use is as follows.
Y(A+B+C)=[Y(A+B)C, Y(A+C)+B, Y(B+c)+A] Hi^Lo↓, wherein Hi^Lo↓ Indicates function values of units in a number set and should be arranged from low to high. The Y(A+B+C)=[Y(A+B)+C, Y(A+C)+B, Y(B+c)+A]

[1] = A:B:C=12.5:2:45 fixed proportion

Question: Which results are given for `O=c1[nH]cc(F)c(=O)[nH]1` [5-fluorouracil (C), 5-fluorouracil]?
Answer: dose range of the additive effect, 5-fluorouracil (C) [1]: 6.5815 to 19.7579 µg/mL; Efficacy of C (C 0.00017166 μg/ml): −2.8810%; Efficacy of C (C 0.00068665 μg/ml): −2.7475%; Efficacy of C (C 0.00274658 μg/ml): −2.3331%; Efficacy of C (C 0.01098633 μg/ml): −1.0631%; Efficacy of C (C 0.04394531 μg/ml): 2.6806%; Efficacy of C (C 0.17578125 μg/ml): 12.5608%; Efficacy of C (C 0.703125 μg/ml): 32.4840%; Efficacy of C (C 2.8125 μg/ml): 57.2443%; Efficacy of C (C 11.25 μg/ml): 74.5929%; Efficacy of C (C 45 μg/ml): 82.4752%; inhibition at 0.000686646 µg/mL (Homo sapiens, NCI-H460, 5-fluorouracil (C) 0.000686646 μg/ml single use, read-out: Inhibition rate): -0.33%; inhibition at 0.00274658 µg/mL (Homo sapiens, NCI-H460, 5-fluorouracil (C) 0.002746582 μg/ml single use, read-out: Inhibition rate): 6.67%; inhibition at 0.0109863 µg/mL (Homo sapiens, NCI-H460, 5-fluorouracil (C) 0.010986328 μg/ml single use, read-out: Inhibition rate): -3.78%; inhibition at 0.0439453 µg/mL (Homo sapiens, NCI-H460, 5-fluorouracil (C) 0.043945313 μg/ml single use, read-out: Inhibition rate): -6.89%; inhibition at 0.175781 µg/mL (Homo sapiens, NCI-H460, 5-fluorouracil (C) 0.17578125 μg/ml single use, read-out: Inhibition rate): 7.91%; inhibition at 0.703125 µg/mL (Homo sapiens, NCI-H460, 5-fluorouracil (C) 0.703125 μg/ml single use, read-out: Inhibition rate): 40%; inhibition at 2.8125 µg/mL (Homo sapiens, NCI-H460, 5-fluorouracil (C) 2.8125 μg/ml single use, read-out: Inhibition rate): 60.8%; inhibition at 11.25 µg/mL (Homo sapiens, NCI-H460, 5-fluorouracil (C) 11.25 μg/ml single use, read-out: Inhibition rate): 61.4%; inhibition at 45 µg/mL (Homo sapiens, NCI-H460, 5-fluorouracil (C) 45 μg/ml single use, read-out: Inhibition rate): 84.5%; inhibition at 180 µg/mL (Homo sapiens, NCI-H460, 5-fluorouracil (C) 180 μg/ml single use, read-out: Inhibition rate): 91%

Question: How did the “Efficacy of A” value (A 0.00004768 μg/ml) turn out when `COc1cc([C@@H]2c3cc4c(cc3[C@@H](O[C@@H]3O[C@@H]5CO[C@@H](C)O[C@H]5[C@H](O)[C@H]3O)[C@H]3COC(=O)[C@H]23)OCO4)cc(OC)c1O` [Etoposide (A), etoposide] was run?
Answer: −1.3189%

Question: And the “Efficacy of A” value (A 0.00019073 μg/ml)?
Answer: 0.5342%

Question: What about the “Efficacy of A” value (A 0.00076294 μg/ml) of the same compound?
Answer: 3.2432%

Question: What about the “Efficacy of A” value (A 0.00305176 μg/ml) of the same compound?
Answer: 7.1153%

Question: What about the “Efficacy of A” value (A 0.01220703 μg/ml) of the same compound?
Answer: 12.4756%

Question: And the “Efficacy of A” value (A 0.048828125 μg/ml)?
Answer: 19.5765%

Question: And the “Efficacy of A” value (A 0.1953125 μg/ml)?
Answer: 28.4535%

Question: What about the “Efficacy of A” value (A 0.78125 μg/ml) of the same compound?
Answer: 38.7811%

Question: What about the “Efficacy of A” value (A 3.125 μg/ml) of the same compound?
Answer: 49.8373%

Question: And the “Efficacy of A” value (A 12.5 μg/ml)?
Answer: 60.6678%

Question: What about the “dose range of the additive effect, etoposide (A)” value [1] of the same compound?
Answer: 1.8282 to 5.4883 µg/mL

Question: What about the inhibition at 0.000190735 µg/mL (Homo sapiens, NCI-H460, Etoposide (A) 0.000190735 μg/ml single use, read-out: Inhibition rate) of the same compound?
Answer: 1.38%

Question: What about the inhibition at 0.000762939 µg/mL (Homo sapiens, NCI-H460, Etoposide (A) 0.000762939 μg/ml single use, read-out: Inhibition rate) of the same compound?
Answer: 3.73%

Question: What about the inhibition at 0.00305176 µg/mL (Homo sapiens, NCI-H460, Etoposide (A) 0.003051758 μg/ml single use, read-out: Inhibition rate) of the same compound?
Answer: -0.19%

Question: And the inhibition at 0.012207 µg/mL (Homo sapiens, NCI-H460, Etoposide (A) 0.012207031 μg/ml single use, read-out: Inhibition rate)?
Answer: 16.7%

Question: What about the inhibition at 0.0488281 µg/mL (Homo sapiens, NCI-H460, Etoposide (A) 0.048828125 μg/ml single use, read-out: Inhibition rate) of the same compound?
Answer: 17.2%

Question: What about the inhibition at 0.195312 µg/mL (Homo sapiens, NCI-H460, Etoposide (A) 0.1953125 μg/ml single use, read-out: Inhibition rate) of the same compound?
Answer: 30.6%

Question: And the inhibition at 0.78125 µg/mL (Homo sapiens, NCI-H460, Etoposide (A) 0.78125 μg/ml single use, read-out: Inhibition rate)?
Answer: 41.5%

Question: What about the inhibition at 3.125 µg/mL (Homo sapiens, NCI-H460, Etoposide (A) 3.125 μg/ml single use, read-out: Inhibition rate) of the same compound?
Answer: 49.6%

Question: What about the inhibition at 12.5 µg/mL (Homo sapiens, NCI-H460, Etoposide (A) 12.5 μg/ml single use, read-out: Inhibition rate) of the same compound?
Answer: 55%

Question: And the inhibition at 50 µg/mL (Homo sapiens, NCI-H460, Etoposide (A) 50 μg/ml single use, read-out: Inhibition rate)?
Answer: 74.4%

Question: How did the “dose range of the additive effect, vincristine (B)” value [1] turn out when `CC[C@]1(O)C[C@H]2CN(CCc3c([nH]c4ccccc34)[C@@](C(=O)OC)(c3cc4c(cc3OC)N(C=O)[C@H]3[C@@](O)(C(=O)OC)[C@H](OC(C)=O)[C@]5(CC)C=CCN6CC[C@]43[C@@H]65)C2)C1` [Vincristine (B), vincristine] was run?
Answer: 0.2925 to 0.8781 µg/mL

Question: And the “Efficacy of B” value (B 0.00000763 μg/ml)?
Answer: 4.9016%

Question: And the “Efficacy of B” value (B 0.00003052 μg/ml)?
Answer: 4.9048%

Question: And the “Efficacy of B” value (B 0.00012207 μg/ml)?
Answer: 4.9268%

Question: What about the “Efficacy of B” value (B 0.00048828 μg/ml) of the same compound?
Answer: 5.0764%

Question: And the “Efficacy of B” value (B 0.00195313 μg/ml)?
Answer: 6.0768%

Question: And the “Efficacy of B” value (B 0.0078125 μg/ml)?
Answer: 12.0757%

Question: And the “Efficacy of B” value (B 0.03125 μg/ml)?
Answer: 33.3731%

Question: And the “Efficacy of B” value (B 0.125 μg/ml)?
Answer: 55.3101%

Question: And the “Efficacy of B” value (B 0.5 μg/ml)?
Answer: 61.7291%

Question: And the “Efficacy of B” value (B 2 μg/ml)?
Answer: 62.8101%

Question: What about the inhibition at 30.52 pg/mL (Homo sapiens, NCI-H460, Vincristine (B) 0.000030518 μg/ml single use, read-out: Inhibition rate) of the same compound?
Answer: 2.75%

Question: And the inhibition at 0.00012207 µg/mL (Homo sapiens, NCI-H460, Vincristine (B) 0.00012207 μg/ml single use, read-out: Inhibition rate)?
Answer: -0.11%

Question: And the inhibition at 0.000488281 µg/mL (Homo sapiens, NCI-H460, Vincristine (B) 0.000488281 μg/ml single use, read-out: Inhibition rate)?
Answer: 13.2%

Question: And the inhibition at 0.00195312 µg/mL (Homo sapiens, NCI-H460, Vincristine (B) 0.001953125 μg/ml single use, read-out: Inhibition rate)?
Answer: 8.91%

Question: What about the inhibition at 0.0078125 µg/mL (Homo sapiens, NCI-H460, Vincristine (B) 0.0078125 μg/ml single use, read-out: Inhibition rate) of the same compound?
Answer: 6.25%

Question: What about the inhibition at 0.03125 µg/mL (Homo sapiens, NCI-H460, Vincristine (B) 0.03125 μg/ml single use, read-out: Inhibition rate) of the same compound?
Answer: 37%

Question: And the inhibition at 0.125 µg/mL (Homo sapiens, NCI-H460, Vincristine (B) 0.125 μg/ml single use, read-out: Inhibition rate)?
Answer: 53.2%

Question: And the inhibition at 0.5 µg/mL (Homo sapiens, NCI-H460, Vincristine (B) 0.5 μg/ml single use, read-out: Inhibition rate)?
Answer: 55.9%

Question: And the inhibition at 2 µg/mL (Homo sapiens, NCI-H460, Vincristine (B) 2 μg/ml single use, read-out: Inhibition rate)?
Answer: 65.8%

Question: And the inhibition at 8 µg/mL (Homo sapiens, NCI-H460, Vincristine (B) 8 μg/ml single use, read-out: Inhibition rate)?
Answer: 66.3%
